Results published in ChEMBL document CHEMBL1201862, “PubChem BioAssay data set” (2004).
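Dose response: 5 concentrations. Exposure: 48 h. Format: 96-well plates. Endpoint: linear interpolation; highest concentration if not reached. GI50 is the concentration that inhibits growth by half.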 Calls of active or inactive are those of the source. Rule as the data show it: active = GI50 up to about 1.1 µM and inactive = higher.

What was measured:
Experiment in all cases: NCI tumour cell line growth inhibition, 48 h
DMS-114 = tested on: DMS-114
DLD-1 = tested on: DLD-1
HOP-18 = tested on: HOP-18
SNB-78 = tested on: SNB-78
XF498 = tested on: XF498
DMS-273 = tested on: DMS-273
RXF 631 = tested on: RXF 631
LXFL 529 = tested on: LXFL 529

| SMILES | GI50 (DMS-114) | GI50 (DLD-1) | GI50 (HOP-18) | GI50 (SNB-78) | GI50 (XF498) | GI50 (DMS-273) | GI50 (RXF 631) | GI50 (LXFL 529) |
| --- | --- | --- | --- | --- | --- | --- | --- | --- |
| CCCCCC/C=C/CCCCCCCc1cccc(O)c1C(=O)O | > 100 µM (inactive) | 43.6 µM (inactive) | 48.4 µM (inactive) | > 100 µM (inactive) | > 100 µM (inactive) | 34.9 µM (inactive) | > 100 µM (inactive) | 45.4 µM (inactive) |
| NCc1cc(O)c(O)c(O)c1 | > 100 µM (inactive) | > 100 µM (inactive) | > 100 µM (inactive) | > 100 µM (inactive) | > 100 µM (inactive) | > 100 µM (inactive) | > 100 µM (inactive) | > 100 µM (inactive) |
| CCSC1=C(C)N(/C=N/C(C)(C)C)CC1 | > 100 µM (inactive) | > 100 µM (inactive) | > 100 µM (inactive) | > 100 µM (inactive) | > 100 µM (inactive) | > 100 µM (inactive) | > 100 µM (inactive) | > 100 µM (inactive) |
| O=C(/C=C\c1cccc2ccccc12)c1cccc2ccccc12 | 5.51 µM (inactive) | 5.43 µM (inactive) | > 10 µM (inactive) | > 10 µM (inactive) | 7.57 µM (inactive) | 9.08 µM (inactive) | 7.89 µM (inactive) | 9.38 µM (inactive) |
| CS(=O)(=O)Sc1ccc(Cl)cc1 | – | 13.9 µM (inactive) | 26.8 µM (inactive) | 0.713 µM (active) | 10.7 µM (inactive) | 5.15 µM (inactive) | 7.38 µM (inactive) | 11.3 µM (inactive) |
| Cc1c(C(=O)C/C(=N/NC(=O)c2ccccc2)C(=O)Nc2ccc(Cl)cc2)[n+]([O-])c2ccccc2[n+]1[O-] | 32.6 µM (inactive) | 75.7 µM (inactive) | > 100 µM (inactive) | > 100 µM (inactive) | > 100 µM (inactive) | 75.2 µM (inactive) | > 100 µM (inactive) | 84.3 µM (inactive) |
| O=C(/C=C/c1ccccc1)NC1C=Nc2ccc(Cl)cc2NC1=O (configuration not stated) | 5.66 µM (inactive) | 20.8 µM (inactive) | 20.7 µM (inactive) | 53.7 µM (inactive) | 13.3 µM (inactive) | 18.2 µM (inactive) | 19.5 µM (inactive) | 23.9 µM (inactive) |
| O=C(O)C12C3CCCC1C2CC3 (configuration not stated) | > 100 µM (inactive) | > 100 µM (inactive) | > 100 µM (inactive) | > 100 µM (inactive) | > 100 µM (inactive) | – | > 100 µM (inactive) | > 100 µM (inactive) |
